Tested on: epithelial surface of the backs of 18 month old ovarectomized and sham ovarectomized rats
Experiment: Parallel study of moisturiser and antibiotic on epithelial thickness
Assay type: in vivo, rat
Description: In a parallel study a moisturiser (hydroderm), the topical antibiotic Chloromycetin (chloramphenicol), coconut oil, or coconut oil extracted into ethanol were applied to the epithelial surface of the backs of 18 month old ovarectomized and sham ovarectomized rats and compared to the epithelial surface of an adjacent untreated site. […] The results also indicate that the changes noted in the epithelium are not related to any antimicrobial capacity of the extracts as the changes are not able to be replicated by chloramphenicol.

With `O=C(N[C@H](CO)[C@H](O)c1ccc([N+](=O)[O-])cc1)C(Cl)Cl` [Chloromycetin (chloramphenicol), chloramphenicol] the “thickness of the treated skin compared to the untreated adjacent skin” value was “No significant difference”.

— US9649512B2, “One or more of Vigna marina, Cocos nucifera L. or Terminalia catappa L. extracts for treating wounds, skin disorders and hair loss” (CIMTECH PTY LIMITED, priority 2009, dated 2017)
